According to article PMC5640672, “Molecular mechanism of synergy between the antimicrobial peptides PGLa and magainin 2” (Scientific Reports, 2017):
No end group written: not given here.

Key:
S. aureus DSM 1104 = test: Checker-board assay (FICI); assay type: cell-based, Staphylococcus aureus; conditions: for FICI in combination with MAG2-WT: below 0.5 = synergistic activity
Description: A suitable method to study synergistic antimicrobial activity is the so-called checker-board assay, described in the Methods section. We performed such experiments on one Gram-negative bacterium, E. coli, and one Gram-positive one, S. aureus. From this method a fractional inhibitory concentration index (FICI) is determined, and when this is below 0.5, the peptides are said to have a synergistic effect against bacteria. This is the biologically relevant effect, but we are here interested in the atomistic details of the interactions behind the effect. Therefore we also use biophysical methods.
The antimicrobial activity of the peptides was investigated with a standard MIC assay[87],[88] on one Gram positive (Staphylococcus aureus, DSM 1104, ATCC 25923) and one Gram negative bacterial strain (Escherichia coli, DSM 1103, ATCC 25922). Bacteria were grown in Müller-Hinton medium (MH) at 37 °C and 220 rpm. Overnight cultures were inoculated from a single colony and grown for approximately 16 h. Day cultures were grown for approximately 3 h until they reached the exponential growth phase. These suspensions were diluted with MH-medium to a concentration of 10^6 colony-forming units (CFU) per ml. The microtiter plates (96 wells of 100 µL) were filled with 50 µL of MH, and serial 2-fold dilutions of each peptide were arranged in triplets along the columns. […] Two columns were filled with medium only, to serve as a positive control (bacteria), and as a negative control (no bacteria) to check for contamination of the medium. The bacterial suspension was added in 50 µL aliquots to each well, except for the negative control, to reach a final concentration of 5 × 10^5 CFU/ml. The plates were incubated for 22 h at 37 °C. To each well 20 µL of 0.2 mg/ml Resazurin solution was added and incubated for another two hours. The MIC value was determined visually, as the lowest peptide concentration which inhibited bacterial growth in at least two out of three columns.
To visualize synergy between different peptides, a two-dimensional dilution assay was used[89],[90]. The same bacterial strains were used as in the MIC assay. The procedure of preparing the bacterial suspensions was analogous to the MIC assay, but with a higher final concentration because the volumes in the two setups are different. The main plate (MP) was filled with 40 µl of MH, and serial 2-fold dilutions of the peptide were arranged in each row (8 rows × 7 columns). As described above, the first column was filled with doubly concentrated medium. On another plate (HP, help plate) a second peptide dilution assay was performed, but orthogonal to the main plate. The last row was left empty (7 rows × 8 columns). 40 µL of each well of the HP were transferred to each well of the MP (A1 → A1, etc.). Two columns were filled with medium only, to serve as a positive control (bacteria), and as a negative control (no bacteria) to check for contamination of the medium. The bacterial suspension was added in 20 µL aliquots to each well, except for the negative control, to reach a final concentration of 5 × 10^5 CFU/ml. The plates were incubated for 22 h at 37 °C. To each well 20 µL of 0.1 mg/ml Resazurin solution was added and incubated for another two hours. From these plates, it is possible to determine the MIC value for each of the two peptides, as well as the inhibitory values of the mixtures with 7 × 7 different peptide ratios. From these values, fractional inhibitory concentration indices (FICIs) were calculated with the following formula[89],[91]:1 FICI=[MIC(A)^comb/MIC(A)^alone]+[MIC(B)^comb/MIC(B)^alone] In this formula, MIC(A)^alone is the MIC value determined for peptide A alone, and MIC(A)^comb is the concentration of peptide A at the MIC determined for the combination. The same holds for peptide B. FICI values below 0.5 are taken to indicate a clear synergistic effect, values between 0.5 and 2 an additive effect, and values above 2 an antagonistic effect[89],[92].

[1] = Fluorescence ANTS/DPX vesicle leakage assay in POPE/POPG/TOCL (72:23:5); conditions: POPE/POPG/TOCL (72:23:5) 100 nm vesicles, P/L ≈ 1:30, mixtures 1:1, 10 mM HEPES pH 7.5, 155 mM NaCl, 30 °C, 600 s, % of Triton-X-100 leakage, mean of n = 3
From the text: It could be argued that POPC/POPG (3:1) is not the most appropriate model system to describe a bacterial membrane, which rarely contains PC lipids. We therefore also performed leakage in another lipid system, POPE/POPG/TOCL (72:23:5), which is a good model of E. coli membranes[45],[69],[70]. […] For all of the other mutants discussed below, leakage was also studied both in POPC/POPG as well as POPE/POPG/TOCL, but since the results (synergy or no synergy) were in all cases the same, the latter data will not be presented in the text. All leakage data in POPE/POPG/TOCL (72:23:5) for charge mutants are summarized in Supplementary Table S4.
Leakage of small unilamellar vesicles induced by the peptides was studied using a standard fluorescence assay.
The appropriate lipids for each experiment were dissolved in CHCl3, together with 0.02 mol-% Rhodamine-PE (Rh-PE). […] This stock suspension was subjected to 10 freeze-thaw cycles and then frozen. Appropriate aliquots of the stock lipid suspension were unfrozen each day and extruded (41 times) through polycarbonate membranes with 100 nm pore size, and stored at room temperature overnight. The fluorophore and quencher outside the vesicles were removed by size exclusion chromatography using spin-columns (Pierce centrifuge column, 2 ml, Life Technologies GmbH, Darmstadt, Germany) filled with Sephacryl 100-HR (2 min, 1500 × g). For elution, a 10 mM HEPES buffer (pH 7.5) was used, containing 155 mM NaCl to balance the osmolarity. After extrusion and removal of the external dye and quencher, the lipid concentration usually decreases. Therefore, before each set of measurements a rhodamine spectrum was recorded to determine the actual concentration of lipids, which was referenced to a spectrum taken of vesicles made by sonification without any subsequent treatment.
Fluorescence experiments were performed on a FluoroMax2 spectrofluorimeter (HORIBA Jobin Yvon, Unterhaching, Germany) equipped with a thermostated sample holder and magnetic stirrer, using an excitation wavelength of 355 nm, an emission wavelength of 508 nm, and slit widths of 5 nm. The peptide solutions were placed in elution buffer in a 1 cm standard cuvette at 30 °C. 100 s after the start of the measurement lipid vesicles were added, and the intensity of the fluorescence at 508 nm was recorded. The leakage was measured during 600 s after addition of vesicles, and the measurement was terminated after addition of Triton-X-100 (0.25% v/v), which dissolved the vesicles, and yielded 100% leakage. To determine the background signal of the vesicles themselves, several blanks were recorded per measurement set. From the leakage values of the peptides alone and of the mixture of two peptides a synergy factor SF was calculated:3 SF=L(A+B)/[L(A)+L(B)] Here, L(A) is the leakage found with peptide A alone, L(B) is the leakage found with peptide B alone, and L(A + B) is the leakage found with the mixture of peptides A and B. In all cases the P/L was the same for both peptides, alone and in the mixture, so that in the mixture the total P/L was twice that of the individual peptide measurements. […] Measurements were repeated three times and average values and standard deviations calculated for the leakage and the synergy factors. An average SF ≥ 2 was taken to indicate synergy.

[2] = Table S8 series (PGLa-to-MSI mutants)
[3] = Table S4 series (charge mutants)

Substance	FICI in combination with MAG2-WT (S. aureus DSM 1104)	Leakage, mean value [1, 2]	FICI in combination with PGLa-WT (S. aureus DSM 1104)	Leakage, mean value [1, 3]	Leakage, mean value ([1]; Table S12 series (MSI-to-PGLa mutants))
KIAGKAGAIAGKIAKVALKAL-NH2 [PtM-a2, PGLa to MSI-103 mutant, three amino acids converted]	below 0.5	4.5%			
GIGKFLHSAKKFGKAFVGKIMNS-OH [MAG2-E19K, MAG2 charge mutant E19K]			above 0.5	1.6%	
GIGKFLHSAKKFGKAFVGKIMNS-NH 2 (GIGKFLHSAKKFGKAFVGKIMNS-NH2) [MAG2-E19K-amide, amidated MAG2 E19K mutant]			above 0.5	2.9%	
KIAGKIGKIAGKIAKIAGKIA-NH2 [MtP-A7G, MSI-103 to PGLa single mutant A7G]	below 0.5				5.1%
GMASKAGAIAGKIAKIAGKIA-NH2 [PtM-c1, PGLa to MSI-103 mutant, segment C replaced]	below 0.5	1.5%			
GMASKAGKIAGKIAKVALKAL-NH2 (also: 15N-labeled Ala10) [PtM-A8K, PGLa single mutant A8K]	below 0.5	7.1%			
GMASKIGAIAGKIAKVALKAL-NH2 (also: 15N-labeled Ala10) [PtM-A6I, PGLa single mutant A6I]	below 0.5	3.7%			
